Assay results: paper PMC5532363, “Synergistic blending of high-valued heterocycles inhibits growth of Plasmodium falciparum in culture and P. berghei infection in mouse model” (Scientific Reports, 2017)
Like-named read-outs stand apart in the source and are kept apart here.

Assays:
[1] = system: P. falciparum 3D7 (Pf3D7), CQ sensitive; experiment: SYBR Green I growth inhibition assay, asynchronous P. falciparum 3D7 culture; type: cell-based, Plasmodium falciparum; details: for IC50: Plasmodium falciparum; for IC50 (SE) µM / IC50 (SE) µg/mL: Pf3D7, asynchronous culture
Source text: Antimalarial activity of all the listed Pht analogues was initially assessed on asynchronous cultures of P. falciparum 3D7 (Pf3D7) clone using the SYBR Green assay. […] The mean IC50 values are based on three separate experiments (Table 1).
The laboratory-adapted P. falciparum strains 3D7 (Africa; CQ sensitive) and W2 (Africa; CQ resistant), were acquired from Malaria Research and Reference Reagent Resource Center (MR4) (Manassas, VA, USA) and maintained with type O +ve erythrocytes suspended in continuous complete culture medium as described. Complete culture media consisted of 10.43 g/litre of RPMI 1640-HEPES supplemented with 10% (vol/vol) human AB serum, 92.6 mg/litre L-glutamine, 50 mg/liter hypoxanthine, 2 g/litre sodium bicarbonate (Sigma-Aldrich, St. Louis, MO). Incubation of cultures was at 37 °C and maintained in a low oxygen atmosphere (5% O2, 5% CO2, 90% N). The levels of parasitemia in the cultures were maintained at between 2 and 10%, with 5% hematocrit. Media was changed after every 24 hours and parasitemia monitored every 48 hours. Synchronous cultures were prepared by sorbitol lysis. Stock solutions of the Pht, Pht analogues, and DHA were prepared in absolute dimethyl sulfoxide (DMSO) while CQ was prepared in distilled water. The prepared drug stock solutions were used immediately or stored at −80 °C for not longer than one month before use. Stock solutions were further diluted in serum free RPMI 1640 media (stock solution solvent final conc. 0.05%) before performing a 2-fold serial dilution to achieve dose ranges of 0.2 µM to 100 µM (Pht and derivatives), 7.8 to 2,000 nM (CQ) and 0.17 to 87.5 nM (DHA). 25 μL of the drug diluents were aliquoted into 96 well plates and used immediately. Alternatively, the stock solutions were diluted in distilled water, 2-fold serial dilution performed on a 96 well plate and allowed to air dry in a laminar flow hood after which dried plates were stored at 4 °C until use. SYBR Green I assay technique with additional modification was used for drug susceptibility testing of the parasites. Parasite cultures of >1% parasitemia were diluted to 1% parasitemia and 2% hematocrit and 200 μL were transferred onto drug pre-dosed plates and incubated at 37 °C for 90 hours, [40]. Drug exposure was terminated by freezing the drug plates at −80 °C for 24 hours after which lysis buffer containing (per liter) 100 mM Tris-HCl, 10 mM EDTA, 0.016% Saponin, 1.6% triton X-100 and 20X SYBR Green I dye was added and the sample incubated for 2 hours in the dark. Relative fluorescence units (RFU) were read using the Perkin Elmer Wallac 1420 fluorescence plate reader, with excitation and emission wavelengths of 485 nm and 535 nm respectively. The readouts values were aligned with corresponding drug doses and analysis performed by Graph-pad Prism software. The drug concentrations (x value) were transformed using X = Log[X] and plotted against the counts (y values) and the data analysed by non-linear regression (sigmoid dose-response/variable slope equation) to yield the IC50.

[2] = system: P. berghei NK65; experiment: Modified Peter's 4-day suppressive test in P. berghei NK65 infected Swiss albino mice; type: in vivo, Plasmodium berghei; details: 6h/6u 50 mg/kg, artemisinin 5 mg/kg, s.c. for four consecutive days, n = 6/group
Protocol: The antimalarial effect of two active analogues, 6h and 6u (administered at 50 mg/kg of body weight), was determined in mice infected with P. berghei NK65, a strain, which results in high levels of blood-stage parasitemia. […] However, the 6u analogue had better antimalarial efficacy than the 6h analogue (Fig. 6A). As such, we then evaluated the efficacy of 6u (50 mg/kg) in combination with artemisinin (5 mg/kg of body weight) at reduced dosage in the murine malaria model. […] The median survival times of animals treated with Pht 6u alone, as well in combination with ART were 23 and 27.5 days, respectively (P<0.001).
Figure 6 Antimalarial effect of Pht analogs (6h and 6u) alone and in combination with Artemisinin (6u and ART) on parasitemia and survival in mice infected with P. berghei NK65. Mice were injected with 1 × 10^7 P. berghei infected RBCs. After 48 hours mice were treated with control (PBS: untreated), 6h and 6u (alone), and 6u in combination with artemisinin (all injected subcutaneously) for four consecutive days. The % of parasitemia was determined for the groups on days 5, 8 and 15 by randomly selecting 10 different optical fields on blood smears. (A) Administration of 6h and 6u (alone), and 6 u in combination with ART. Data are the mean ± SEM from six animals per treatment group. (B) Survival in the treatment groups (n = 6/group). (C) Photomicrograph of blood smears of untreated versus treatment groups at day 15 post infection (100x magnification). ART, Artemisinin; *P < 0.05. TEXT PRINTED IN THE PICTURE: (B) Phthalimide 6h: MST- 19.5 | (B) Phthalimide 6u: MST- 23 | (B) Artemisinin: MST- 21.5 | (B) Phthalimide 6u+Artemisinin: MST- 27.5
All animal experiments were performed in female Swiss albino mice (4 to 5 weeks old, weighing 25 to 30 g). The animals were housed under standard controlled conditions at 25 °C with a 12-h light-dark cycle and access to sterilized food pellets and water. All experiments were carried out in accordance with the standard procedures approved by the Animal Ethics Committee of the University of Delhi South Campus, under the Control and Supervision of Experiments on Animals (CPCSEA), Ministry of Social Justice and Empowerment, Government of India. […] The antimalarial activity was carried out in accordance with a slightly modified version of the Peter’s 4-day suppressive test[43]. The animals were assigned to each group (n = 6). Subsequently, after 48 hour of postinfection, the parasitemia level reached 1 to 2%, and all the groups of mice were treated by subcutaneous (s.c.) injection with compounds 6h and 6u alone as well in combination with artemisinin solubilized in DMSO. One group was kept as a control and treated with physiological saline. The efficacy of the treatment was monitored by measuring the parasitemia and survival on days 5, 8 and 15 posttreatments by obtaining thin smears of blood withdrawn from the tail vein of infected mice and staining with 10% Giemsa. The level of parasitemia was determined by counting infected and noninfected erythrocytes from 10 to 15 randomly selected optical fields at 100x magnification and expressed as the number of infected erythrocytes per 100 erythrocytes. The survival of mice was recorded and observed for external symptoms, such as change in body weight, ruffled fur, lethargy and paralysis, until 30 or 40 days posttreatment. The reduction in the level of parasitemia was taken as the index for the curative activities of the drugs. The percentage of parasitemia was calculated manually with the Cell Counting Aid software[44] using the formula (total no. of parasitized RBCs)/(total no. of RBCs) × 100.
For in-vivo experiments, statistical differences between two groups were determined by Student’s t test and between multiple groups using one-way analysis of variance (ANOVA), with P values of <0.05, by GraphPad Prism (version 5.01; GraphPad Software, Inc., CA). […]

[3] = 3D7, Pf3D7, asynchronous culture, SYBR Green, mean of three experiments, NDR / No IC50 = no dose response, read-out: IC50 (SE) µM
[4] = 3D7, Pf3D7, asynchronous culture, SYBR Green, mean of three experiments, NDR / No IC50 = no dose response, read-out: IC50 (SE) µg/mL
[5] = SYBR Green, mean of three experiments, NDR / No IC50 = no dose response

SMILES | IC50 [1, 3] | IC50 [1, 4] | IC50 (SE) µM [1, 5] | IC50 (SE) µg/mL [1, 5] | melting point | also measured
O=C1NC(=O)c2ccccc21 [I, Phthalimide, reference compound] | 5.14 µM | 0.8 µg/mL | – | – | – | –
CC[C@@H](C)[C@H](c1nc2ccccc2n1Cc1c[nH]nn1)N1C(=O)c2ccccc2C1=O [Compound 6z] | – | – | No IC50 | No IC50 | – | –
C[C@@H]1CC[C@H]2[C@@H](C)C(=O)O[C@@H]3O[C@@]4(C)CC[C@@H]1[C@]32OO4 [Artemisinin, reference compound] | – | – | – | – | – | median survival time (MST) [2]: 21.5 days
CCN(CC)CCCC(C)Nc1ccnc2cc(Cl)ccc12 (stereo not shown) [CQ, chloroquine, reference compound] | – | – | – | – | – | IC50 ([1]; 3D7, read-out: IC50 (SE) µM): 0.03 µM; IC50 ([1]; 3D7, read-out: IC50 (SE) µg/mL): 0.015 µg/mL
CC(C)[C@H](c1nc2ccccc2n1Cc1cn(C2O[C@@H](CO)C(O)[C@@H](O)[C@@H]2O)nn1)N1C(=O)c2ccccc2C1=O (stereo partly shown) [6d′] | 48.3 µM | 20 µg/mL | – | – | – | –
CC(C)C[C@H](c1nc2ccccc2n1Cc1cn(CC(=O)O)nn1)N1C(=O)c2ccccc2C1=O [Compound 6q] | 8.4 µM | 4.1 µg/mL | – | – | – | –
CCOC(=O)Cn1cc(Cn2c([C@@H](CC(C)C)N3C(=O)c4ccccc4C3=O)nc3ccccc32)nn1 [Compound 6p] | 62 µM | 31 µg/mL | – | – | 147 to 149 °C | –
CCCCCCn1cc(Cn2c([C@@H](CC(C)C)N3C(=O)c4ccccc4C3=O)nc3ccccc32)nn1 [Compound 6t] | 28 µM | 14 µg/mL | – | – | 146 to 148 °C | –
CCOC(=O)Cn1cc(Cn2c([C@@H]([C@H](C)CC)N3C(=O)c4ccccc4C3=O)nc3ccccc32)nn1 [Compound 6v] | – | – | No IC50 | No IC50 | – | –
CCCCCCn1cc(Cn2c([C@@H](C(C)C)N3C(=O)c4ccccc4C3=O)nc3ccccc32)nn1 [6e′] | 16.7 µM | 6.9 µg/mL | – | – | – | –
C[C@H]1[C@@H](O)O[C@@H]2O[C@@]3(C)CC[C@H]4[C@H](C)CC[C@@H]1[C@@]24OO3 [DHA, dihydroartemisinin, reference compound] | 0.003 µM | 0.0017 µg/mL | – | – | – | –
CC[C@@H](C)[C@H](c1nc2ccccc2n1Cc1cn(CC(=O)O)nn1)N1C(=O)c2ccccc2C1=O [Compound 6w] | 15.6 µM | 11.6 µg/mL | – | – | – | –

Second part, led by results:

IC50 [1, 3] | IC50 [1, 4] | IC50 (SE) µM [1, 5] | IC50 (SE) µg/mL [1, 5] | melting point | SMILES | also measured
– | – | NDR | NDR | 182 to 184 °C | CC(C)[C@H](c1nc2ccccc2n1Cc1cn(-c2ccc(Cl)cc2)nn1)N1C(=O)c2ccccc2C1=O [Compound 6l] | –
– | – | NDR | NDR | 211 to 213 °C | CC[C@@H](C)[C@H](c1nc2ccccc2n1Cc1cn(-c2ccccc2)nn1)N1C(=O)c2ccccc2C1=O [Compound 6f] | –
9.6 µM | 5.5 µg/mL | – | – | 125 to 127 °C | COc1ccc(-n2cc(Cn3c([C@@H](C(C)C)N4C(=O)c5ccccc5C4=O)nc4ccccc43)nn2)cc1 [Compound 6n] | –
– | – | NDR | NDR | 194 to 196 °C | CC[C@@H](C)[C@H](c1nc2ccccc2n1Cc1cn(-c2ccc(Cl)cc2)nn1)N1C(=O)c2ccccc2C1=O [Compound 6g] | –
23.5 µM | 17.5 µg/mL | – | – | 169 to 171 °C | Cc1ccc(-n2cc(Cn3c([C@@H](C(C)C)N4C(=O)c5ccccc5C4=O)nc4ccccc43)nn2)cc1 [Compound 6o] | –
25 µM | 13 µg/mL | – | – | – | Cc1ccc(-n2cc(Cn3c([C@@H](CC(C)C)N4C(=O)c5ccccc5C4=O)nc4ccccc43)nn2)cc1 [Compound 6e] | –
7.2 µM | 3.8 µg/mL | – | – | – | CC(C)[C@H](c1nc2ccccc2n1Cc1cn(CC(=O)O)nn1)N1C(=O)c2ccccc2C1=O [6b′] | –
– | – | NDR | NDR | – | CC(C)C[C@H](c1nc2ccccc2n1Cc1cn(-c2ccc(Cl)cc2)nn1)N1C(=O)c2ccccc2C1=O [Compound 6b] | –
73 µM | 33.4 µg/mL | – | – | 198 to 201 °C | CC[C@@H](C)[C@H](c1nc2ccccc2n1Cc1cn(-c2ccc(C)cc2)nn1)N1C(=O)c2ccccc2C1=O [Compound 6j] | –
40 µM | 22.5 µg/mL | – | – | 135 to 137 °C | CC[C@@H](C)[C@H](c1nc2ccccc2n1Cc1cn(-c2ccc(OC)cc2)nn1)N1C(=O)c2ccccc2C1=O [Compound 6i] | –
17.3 µM | 8.8 µg/mL | – | – | – | CC(C)C[C@H](c1nc2ccccc2n1Cc1cn(-c2ccc(F)cc2)nn1)N1C(=O)c2ccccc2C1=O [Compound 6c] | –
– | – | NDR | NDR | – | COc1ccc(-n2cc(Cn3c([C@@H](CC(C)C)N4C(=O)c5ccccc5C4=O)nc4ccccc43)nn2)cc1 [Compound 6d] | –
30.9 µM | 16 µg/mL | – | – | 221 to 223 °C | CC(C)[C@H](c1nc2ccccc2n1Cc1cn(-c2ccccc2)nn1)N1C(=O)c2ccccc2C1=O [Compound 6k] | –
– | – | No IC50 | No IC50 | – | CCOC(=O)Cn1cc(Cn2c([C@@H](C(C)C)N3C(=O)c4ccccc4C3=O)nc3ccccc32)nn1 [6a′] | –
